Results as given in patent EP4186918A1 (Université de Rennes, priority 2021, dated 2023).
Entries after “also recorded” stand apart in the source; their conditions may differ.

What was measured:
[1] = Garnier-Delamarche representation combining sedimentation and ThT fluorescence; type: physicochemical; settings: from sedimentation and ThT fluorescence
Procedure: After thawing, a pre-dilution in milli Q H2O filtered through 0.2 µm was carried out in order to obtain a solution at a concentration close to the working concentration, greater than 1.25 times. This stock solution was left to incubate for 1 hour in a water bath at 25°C, and was then assayed spectrophotometrically and adjusted to the final working concentration of 1.25 times. The polymerization was initiated by adding 1/4 of the volume of 5X fibrillation buffer (50 mM MOPS, 750 mM NaCl, pH = 7.2) for a final concentration of 1X fibrillation buffer (10 mM MOPS, 150 mM NaCl, PH = 7.2). The samples were left to incubate for 1.5-2 hours at 25°C in a water bath. The study of the polymerization by fluorimetry was carried out under the same conditions, except that the 5X polymerization buffer was supplemented with Thioflavin T (ThT) at 100 µM in order to be able to observe the fluorescence. • (a) Determination of the Aggregative Character of the Peptides. […] The concentration of the supernatant was determined using the Beer-Lambert law A = ε x 1 x C; ε (peptides) = 1450 M^-1cm^-1. […] The fluorescence of the sample was then measured immediately after dilution by recording a fluorescence spectrum (470 nm to 600 nm) at an excitation wavelength of 450 nm (Perkin Elmer LS 55, PM 750, slit10). […]

[2] = Sedimentation after polymerization (aggregative character); type: physicochemical; settings: 800 µM peptide; sedimentable peptide after polymerization as % of total concentration
Procedure: (§1) After thawing, a pre-dilution in milli Q H2O filtered through 0.2 µm was carried out in order to obtain a solution at a concentration close to the working concentration, greater than 1.25 times. This stock solution was left to incubate for 1 hour in a water bath at 25°C, and was then assayed spectrophotometrically and adjusted to the final working concentration of 1.25 times. The polymerization was initiated by adding 1/4 of the volume of 5X fibrillation buffer (50 mM MOPS, 750 mM NaCl, pH = 7.2) for a final concentration of 1X fibrillation buffer (10 mM MOPS, 150 mM NaCl, PH = 7.2). The samples were left to incubate for 1.5-2 hours at 25°C in a water bath. The study of the polymerization by fluorimetry was carried out under the same conditions, except that the 5X polymerization buffer was supplemented with Thioflavin T (ThT) at 100 µM in order to be able to observe the fluorescence. • (a) Determination of the Aggregative Character of the Peptides. […] The concentration of the supernatant was determined using the Beer-Lambert law A = ε x 1 x C; ε (peptides) = 1450 M^-1cm^-1. […] The fluorescence of the sample was then measured immediately after dilution by recording a fluorescence spectrum (470 nm to 600 nm) at an excitation wavelength of 450 nm (Perkin Elmer LS 55, PM 750, slit10).

[3] = Polymerization kinetics of selected peptide alone, ThT spectrofluorimetry; type: physicochemical; settings: 310 µM, ThT fluorescence
Procedure: (§2) After thawing, a pre-dilution of the peptides of interest in sterile water was carried out in order to obtain, for each peptide, a solution at a concentration close to the working concentration. The peptides were then left to incubate at 4°C overnight. On the day of the experiment, the peptide solutions were sonicated for 10 minutes, left to stand for one hour at room temperature, sonicated again for 10 minutes and assayed spectrophotometrically at 280 nm (ε = 1450 M^-1cm^-1). The UV spectra were previously normalized to 0 at 300 nm. The solutions were prepared at concentrations of peptides 1/4 above that desired in the end. The polymerization of VQIVYK was initiated by adding 1/4 of the volume of fibrillation buffer 5X for a final concentration of fibrillation buffer 1X (10 mM MOPS, 150 mM NaCl, pH = 7.2).
The analyses were carried out on a spectrofluorometer (LS 55 from Perkin Elmer) fitted with a 4-cell rack. Black quartz cells (0.2x1.0 cm) were used. […]
The results were first smoothed over 10 points with the "smooth" option of the KaleidaGraph software. […] Finally, the results of each kinetics were normalized relative to the fluorescence intensity of the 1p control after 100 minutes of polymerization considered to be 100%.

[4] = Thioflavin T fluorescence after polymerization (amyloidogenic character); type: physicochemical; settings: 800 µM peptide; ThT fluorescence normalized to 1p = 100%
Procedure: as §1

VQIVYK (PHF6) = experiment: Polymerization kinetics of 1p with selected peptides, ThT spectrofluorimetry; type: biochemical, human
Procedure: as §2
The analyses were carried out on a spectrofluorometer (LS 55 from Perkin Elmer) fitted with a 4-cell rack. Black quartz cells (0.2x1.0 cm) were used. Excitation and emission wavelengths were 450 nm and 480 nm, respectively, and the sensitivity (Photomultiplier "PM") was set at 800 V. The size of the slits was varied from 3 nm to 6 nm. Normalization of each kinetics was performed with respect to the position of the cell on the rack.
The results were first smoothed over 10 points with the "smooth" option of the KaleidaGraph software. After normalization with respect to the position of the cells in the rack, each start of kinetics was adjusted to 0 before the addition of the fibrillation buffer. Finally, the results of each kinetics were normalized relative to the fluorescence intensity of the 1p control after 100 minutes of polymerization considered to be 100%.

[5] = Critical Assembly Concentration (CCa) by sedimentation; type: physicochemical; settings: batch of VQIVYK used in the study; fibrillation buffer 1X
Procedure: The polymerization of VQIVYK was initiated by mixing the VQIVYK peptide (at various concentrations, 52 µM to 344 µM) with 1/4 of its volume in fibrillation buffer 5X. Once polymerized, the samples were sedimented at 16,900 g for 15 minutes. The concentration of free peptide was measured by assay nanodrop 800. The concentration of polymerized peptide was thus determined using the following the relation: [1p]pellet = [1p]initial −[1p]supernatant [formula]

Substance	amyloidogenic and aggregative character [1]	% sedimentation [2]	polymerization of peptide alone [3]	% fluorescence [4]	category of polymerization kinetics of 1p in presence of peptide (VQIVYK (PHF6); [1p] = 155 µM, [selected peptide] = 310 µM)	effect on polymerization of 1p (VQIVYK (PHF6); [1p] = 155 µM, [selected peptide] = 310 µM, thresholds 50% rate, 100% fluorescence intensity)	classification of inhibitory effect (3 categories) (VQIVYK (PHF6); inhibition of PHF6 aggregation)	persistence of inhibitory effect (VQIVYK (PHF6); polymerization followed for 15 hours)	Critical Assembly Concentration (CCa) [5]
Ac-YQIVVK-NH2 [6tp, YQIVVK]	weakly amyloidogenic and weakly aggregative	0%	do not polymerize on their own	1.3%	slow compared to 1p alone and which have a lower fluorescence intensity	clearly inhibited; also recorded: marked inhibitory effect	with a strong inhibitory effect	the inhibitory effect persisted	
Ac-VQIVYK-NH2 [1p, VQIVYK]	strong amyloidogenic and self-aggregative potential	94%		100%					32 µM
